Assay results taken from patent publication US20200281897A1, “INDAZOLE DERIVATIVES FOR CANCER TREATMENT” (Servicio Andaluz de Salud, priority 2016, published 2020).

Tests used:
HL60 [1] = experiment: Western blot and immunocytofluorescence in HL60 cells; format: cell-based, human
Text: The detailed methodology for analyzing mitochondrial membrane potential (APm), Western Blot analysis, and immunocytofluorescence analysis has been described elsewhere 29

HL60 [2] = experiment: WST-1 cell viability assay, HL60; format: cell-based, human; settings: HL60, 18 hours
Procedure: (§1) The cell lines of acute myeloid leukemia KG-1a and HL60 (American Type Culture Collection) were cultured in IMDM medium supplemented with 2 mM of L-glutamine, […] of penicillin, 100 μg/ml of streptomycin, and 15% fetal bovine serum (FBS).
(§2) The cell lines and primary cells were cultured in 96-well plates (5×10e5 cells per well) with the addition of the indicated concentrations of WIN 55,212-2 or PGN cannabinoids in DMSO or with the solvent only in triplicate at 18, 48, and 72 hours. Caspase inhibitor Z-VAD (OMe)-FMK or the CB2 receptor antagonist PGN-8, -37, and -70, together with the cannabinoid WIN-55,212-2, were also added. Cell viability was determined by means of the WST-1 assay [2-(4-iodophenyl)-3-(4-nitrophenyl)-5-(2,4-disulfophenyl)-2H-tetrazolium] according to the manufacturer's instructions (Dojindo Molecular Technologies). Optical densities were measured at 450 nm using a Multiskan™ Go Microplate plate reader (Thermo Fisher Scientific, Waltham, Mass., USA).
(§3) Now it will be analyzed whether the exposure to cannabinoids had any effect on the viability of the tumor cells in vitro. To that end, the human AML U937, HL60, KG-1a, NB-4, MOLM-13, and KG-1 cell lines were cultured in serum-free medium and exposed to various concentrations of WIN-55,212-2 (range of 100 nM to 50 μM) for 18 hours, and cell viability was measured by means of WST-1 assays (Table 1). […]

MM1S = experiment: MTT cell viability assay, myeloma cell line MM1S; format: cell-based, human; settings: MM1S, MTT, 18 hours, doses 0-50 μM; read-out: IC50, cell viability
Procedure: (§4) In vitro studies were carried out using six different human MM cell lines, U266, RPMI8226, MM1S, MM1R, U266-LR7, and RPMI-LR5. For ex vivo assays, human primary cells from healthy donors and MM patients were used (Table 1). Human MM cell lines U266, RPMI8226, and MM1.S were acquired from ATCC and lines U266-LR7, RPMI-LR5, and MM1.R were kindly provided by Dr. Enrique Ocio (Hospital Universitario de Salamanca, Spain). The primary cells were obtained from bone marrow (BM) aspirates or peripheral blood (PB) samples, and the peripheral blood mononuclear cells (PBMCs) were isolated by Ficoll-Hypaque centrifugation and washed twice in phosphate buffered saline (PBS) containing 1% BSA. Hematopoietic stem cells and B and T lymphocytes were isolated from healthy PB donors by positive immunomagnetic separation using human MACS CD34+, CD19+, and CD3+ microbeads, respectively. MM plasma cells were obtained from the bone marrow (BM) of patients with an infiltration of cells of more than 30% (Table 1). The MM plasma cells were identified using CD138+, and were then distinguished from the other cell populations by flow cytometry using a suitable combination of antibodies: anti-human CD64-FITC, CD34-PE, CD56-APC, CD38-APC-H7, and CD45-Pacific Blue antibodies (BD Biosciences, San Jose, Calif.). All the cell lines were cultured in RPMI-1640 supplemented with 10% fetal bovine serum (FBS) and 1% penicillin/streptomycin, as recommended by the supplier. For human primary cells, the concentration of FBS was up to 20%.
(§5) The MM cell lines and primary cells were exposed to different doses of indazole compounds, and viability was evaluated at 18, 48, and 72 hours. Pretreatments with the ceramide synthesis inhibitor (FB1), pan-caspase (ZVAD-FMK), and CB antagonists (PGN-8, PGN-37, and PGN-70) were performed for 30 minutes, and then the cells were incubated with indazole compound WIN-55 up to 18 hours. Cell viability was determined using the MTT assay Cell Counting Kit-8 (Dojindo, Kumamoto, Japan) according to the manufacturer's instructions.

U266 cells = experiment: MM xenograft in NGS mice; format: in vivo
Procedure: The “NOD/scid/IL-2R gammae null” (NGS) mice were acquired from Charles River (France). The tumor xenografts were induced by the subcutaneous injection of 5×10^6 U266 cells mixed with 100 μl of Matrigel (BD Biosciences) in 8-week old mice. When the tumors became palpable (>0.5 cm), the mice were randomly assigned in the following groups (10 mice per group), which received i.p.: 1) 5 mg/kg WIN-55 every 24 hours, 2) 5 mg/kg WIN-55 every 48 hours, and 3) a vehicle. Two groups were left tumor-free and served as a negative control, receiving treatment every 24 or 48 hours, respectively. The tumor growth was evaluated daily by measuring the two bisecting diameters of the tumor with a digital Vernier gauge or caliper. The volume was calculated using the following formula: volume=length×(width) e2×0.4 mm^3. The animals were sacrificed when the length or width of the tumor reached 2 cm.

myeloma cell lines = experiment: MTT cell viability assay, average over all myeloma cell lines; format: cell-based, human; settings: average over the six myeloma cell lines, MTT, 18 hours; read-out: IC50 average
Procedure: as §4, §5

KG-1a = experiment: WST-1 cell viability assay, KG-1a; format: cell-based, human; settings: 18 hours
Procedure: as §1, §2, §3

MOLM-13 = experiment: WST-1 cell viability assay, MOLM-13; format: cell-based, human; settings: MOLM-13, 18 hours
Procedure: U937, NB-4, KG-1, and MOLM-13 (DMSZ, Braunschweig, Germany) were cultured in complete RPMI 1640 medium (with 2 mM of L-glutamine, 100 mg of penicillin, 100 μg/ml of streptomycin, and with 10% FBS), supplemented with 10 mM HEPES, 1×NaPuvuvato, and 1× non-essential amino acids.
as §2
Now it will be analyzed whether the exposure to cannabinoids had any effect on the viability of the tumor cells in vitro. […]

[3] = test system: hematopoietic progenitor populations; experiment: Effect on normal hematopoiesis in healthy BALB/c mice; format: in vivo; settings: 5 mg/kg/day for 7 and 28 days
Procedure: The effect of the cannabinoid on normal hematopoiesis was also tested by means of the treatment of healthy BALB/c mice with WIN-55,212-2 at a dose of 5 mg/kg/day for 7 and 28 days. The bone marrow and the peripheral blood population were analyzed by means of flow cytometry and blood counts.

## CS(=O)(=O)O.Cc1c(C(=O)c2cccc3ccccc23)c2cccc3c2n1[C@H](CN1CCOCC1)CO3 [WIN-55, (R)-(+)-[2,3-dihydro-5-methyl-3-(4-morpholinomethyl)-pyrrolo[1,2,3]-1,4-benzoxazin-6-yl]-1-naphthalenylmethanone mesylate]
HL60 [1]; HL60
  expression of Bax (immunocytofluorescence): considerable increase in Bax
HL60 [1]; HL60, 50 μM, 2, 6, 18 and 24 hours
  caspase activation pattern (Western blot): activation of various caspases
HL60 [2]
  % viable cells at 50 μM: 28.4%
  IC50: 19.4 µM
MM1S
  IC50: 13.6 µM
U266 cells; 5 mg/kg i.p. every 24 or 48 hours, NGS mice, U266 xenograft
  tumor growth (tumor volume): considerably inhibits tumor growth
U266 cells; 5 mg/kg i.p. every 24 hours
  first day on which tumor volume differences were statistically significant: 13 days
U266 cells; 5 mg/kg i.p. every 48 hours
  first day on which tumor volume differences were statistically significant: 16 days
Myeloma cell lines
  IC50: 14.6 µM
KG-1a
  % viable cells at 50 μM: 42.1%
  IC50: 22 µM
MOLM-13
  % viable cells at 50 μM: 56.6%
  IC50: 25.9 µM
[3]
  viability of hematopoietic progenitor populations: do not affect the viability
